ChEMBL document CHEMBL4808180, “Identification of 2,2-Dimethylbutanoic Acid (HST5040), a Clinical Development Candidate for the Treatment of Propionic Acidemia and Methylmalonic Acidemia” (J Med Chem, 2021)

Experiments:
[1] = Reduction of propionyl-CoA in human hepatocytes derived from propionic acidemia patient at 100 uM pretreated for 30 mins followed by 13C-isoleucine addition and measured after 1 hr by MS/MS analysis relative to control; format: functional, Hepatocyte; parameters: scale not given: the % may be the effect or the level left; conditions: time 90 min, 1.5 h
[2] = Reduction of propionyl-CoA in human hepatocytes derived from propionic acidemia patient pretreated for 30 mins followed by 13C-isoleucine addition and measured after 1 hr by MS/MS analysis; format: functional, cell-based; conditions: hepatocyte

Structure (SMILES)	Activity [1] [%]	EC50 [2] [µM]
CCCC(C)C(=O)O (stereo unspecified)	77	12.6
CC(CCO)C(=O)O (stereo unspecified)	66	> 100
CCC(CC)C(=O)O	67	33.7
CCCC(CCC)C(=O)OC	63	> 100
O=C(O)C1CCCC1	42	12.3
O=C(O)C1CCC1	49	55.4
O=C(O)CCCC(F)(F)F	65	9.91
CC1(CC(=O)O)CC1	65	15.5
CCC(C)(C)C(N)=O	57	> 100
CSCCCC(=O)O	78	18.9
CCCC(CC)C(=O)O (stereo unspecified)	98	1.23
COCC(C)(C)C(=O)O	75	2.69
CNCCC(=O)O	64	6.55
CCCC(C)(C)C(=O)O	96	0.76
CCC(C)(C)C(=O)OC	91	1.73
O=C(O)C1CC1 [CYCLOPROPANE CARBOXYLIC ACID]	66	23.3
CC(C)(C)C(=O)O [PIVALATE]	77	5.53
CC(C)(C)CC(=O)O [T-BUTYLACETIC ACID]	97	0.91
